Legend:
[1] = tested on: ErbB2-overexpressing metastatic breast cancer; assay: clinical study of chemotherapy with or without HERCEPTIN (Example 1); type: in vivo, human
Text: Eligibility Criteria Patients had to fulfill all of the following criteria to be eligible for study admission: • Metastatic breast cancer • Overexpression of the ErbB2 (HER2) oncogene (2+ to 3+ as determined by immunohistochemistry or fluorescence in situ hybridization (FISH). [Tumor expression of ErbB2 can be determined by immunohistochemical analysis, as previously described (Slamon et al., [1987] and [1989], supra), of a set of thin sections prepared from the patient's paraffin-archived tumor blocks. The primary detecting antibody used is murine 4D5 MAb, which has the same CDRs as the humanized antibody used for the treatment.
Beginning on day 7, patients received weekly administration of 2 mg/kg antibody (i.v.) over a 90-minute period.
The patients received one of two chemotherapy regimens for a minimum of six cycles, provided their disease was not progressing: a) cyclophosphamide and doxorubicin or epirubicin (AC), if patients have not received anthracycline therapy in the adjuvant setting, or b) paclitaxel (T, TAXOL®), if patients have received any anthracycline therapy in the adjuvant setting. […] Subsequent doses of the antibody were given immediately before chemotherapy administration, if the initial dose of the antibody was well tolerated. If the first dose of the antibody was not well tolerated, subsequent infusions continued to precede chemotherapy administration by 24 hours. Patients were permitted to continue receiving chemotherapy beyond six cycles if, in the opinion of the treating physician, they were continuing to receive treatment benefit.
Cyclophosphamide (600 mg/m^2) was given either by iv push over a minimum period of 3 minutes or by infusion over a maximum period of 2 hours.
Doxorubicin (60 mg/m^2) or epirubicin (75 mg/m^2) were given either by slow iv push over a minimum period of 3-5 minutes or by infusion over a maximum period of 2 hours, according to institutional protocol.
All patients receiving paclitaxel were premedicated with dexamethasone (or its equivalent) 20 mg×2, administered orally 12 and 6 hours prior to paclitaxel; diphenhydramine (or its equivalent) 50 mg, iv, administered 30 minutes prior to paclitaxel, and […] (or another H2 blocker) 300 mg, iv, administered 30 minutes prior to paclitaxel.
Progressive disease also includes those instances when new lesions have appeared.
Complete Response Disappearance of all radiographically and/or visually apparent tumor for a minimum of 4 weeks. Skin and chest wall complete responses had to be confirmed by biopsy. […]
Time to disease progression (TTP) was calculated from the beginning of therapy to progression. Confidence limits for response rates were calculated using the exact method for a single proportion. […]

BT-474M1 [2] = assay: nude mouse xenograft tumor volume, i.v. bolus versus s.c. bolus (Example 4); type: in vivo; conditions: Group 1, IV Control
Experimental: (§1) This study was set up as disclosed herein in Example 3 for the comparison of intravenous bolus and subcutaneous infusion delivery. A sustained release estrogen implant was inserted subcutaneously one day before tumor cell innoculation as described in Example 3. Six days after tumor cell innoculation, the initial tumor measurement was performed. […] Animals were dosed once weekly for 4 weeks.
(§2) The mice were treated according to the information in Table 4 and using the techniques disclosed in Example 3. […] The control E25 antibody serum concentration was determined according to standard immunoassay techniques.
For this study, efficacy was measured as a decrease in tumor volume. Tumor volume was measured twice weekly.

[3] = serum antibody concentration in xenograft mice (Example 4); type: in vivo, mouse; conditions: Group 1, IV, MD 4 mg/kg
Experimental: as §1, §2

BT-474M1 [4] = assay: nude mouse xenograft tumor volume, i.v. bolus versus s.c. infusion (Example 3); type: in vivo; conditions: control s.c. infusion
Experimental: A study in a nude mouse xenograft model, which incorporates a human breast cancer cell line that naturally overexpresses the HER2 gene (BT-474M1, derived from BT-474 cells, ATCC Accession number HTB-20), comparing tumor volume as a function of i.v. bolus versus s.c. infusion was performed as follows. In the first study athymic nude nu nu 7-9 week old female mice were obtained from Taconic Inc (Germantown, N.Y.). To initiate tumor development, each mouse was inoculated subcutaneously with 3×10^6 BT474M1 cells suspended in Matrigel™. When tumor nodules reached a volume of approximately 100 mm^3, animals were randomized to 4 treatment groups.
(§3) Animals were exposed to estrogen by subcutaneous sustained release estrogen pellet 9 days before the start of dosing to promote growth of grafted tumor cells. The animals were inoculated with the BT474M 1 cells 8 days before the beginning of treatment and tumors were allowed to grow. […] The study groups were treated until day 35. […] Tumor volumes were measured two days before dosing began and twice per week from day 6 to day 35 in the study for which data is tabulated below. Tumors were measured in three dimensions and volumes were expressed in mm^3. Efficacy was determined by a statistical comparison (ANOVA) of tumor volumes of test animals relative to untreated control animals.

[5] = serum antibody concentration in xenograft mice (Example 3); type: in vivo, mouse; conditions: control s.c. infusion
Experimental: as §3

[6] = median follow-up 10.5 months, H 4 mg/kg then 2 mg/kg weekly i.v.

| Compound | syndrome of myocardial dysfunction ([1]; Grade ¾) [%] | AE(%) overall severe adverse events ([1]; median follow-up 10.5 months) [%] | RR(%) [1, 6] [%] | TTP(months) [1, 6] [months] | Tumor Vol. Day 28, mm^3 (BT-474M1 [2]) [mm^3] | Tumor Vol. Day 31, mm^3 (BT-474M1 [2]) [mm^3] | Tumor Vol. Day 6, mm^3 (BT-474M1 [2]; LD 8, MD 4 mg/kg/week, initial measurement before first dose) [mm^3] | Day 6-Day 31 Area Under Curve Tumor Vol., mm^3 (BT-474M1 [2]; Day 17 excluded) [mm^3] | Serum Concentration, Mean ([3]; Day 0) [µg/mL] | Serum Concentration, Mean ([3]; Day 7) [µg/mL] | Serum Concentration, Mean ([3]; Day 14) [µg/mL] | Serum Concentration, Mean ([3]; Day 21) [µg/mL] | Tumor Volume (area under curve) Day 6-Day 35 (BT-474M1 [4]) | Tumor Volume (mm^3), Day 35 (BT-474M1 [4]; IV LD 2.20 mg/kg, infusate […]) [mm^3] | HERCEPTIN Serum Conc. (μg/ml), Day 27 [5] [µg/mL] |
| --- | --- | --- | --- | --- | --- | --- | --- | --- | --- | --- | --- | --- | --- | --- | --- |
| CC(=O)O[C@H]1C(=O)[C@@]2(C)[C@H]([C@H](OC(=O)c3ccccc3)[C@]3(O)C[C@H](OC(=O)[C@H](O)[C@@H](NC(=O)c4ccccc4)c4ccccc4)C(C)=C1C3(C)C)[C@]1(OC(C)=O)CO[C@@H]1C[C@@H]2O [T, paclitaxel] | 0 | 59 | 25.0 | 4.2 | – | – | – | – | – | – | – | – | – | – | – |
| rhu MAb E25: nonrelevant antibody E25 (non-specific for HER2 receptor, but a member of the monoclonal IgG class) | – | – | – | – | 1530 | 1630 | 321 | 13600 | 0 | 25.9 | 34.6 | 38.5 | 5650 ± 4700 | 764 ± 700 | 4.16 ± 1.94 |

From patent US7371379B2, “Dosages for treatment with anti-ErbB2 antibodies” (Genentech, Inc., priority 1999, dated 2008)
